From patent publication US20030124132A1 (University of Texas, published 2003)

What was measured:
[1] = Clinical signs of toxicity and histology of normal organs in treated tumor-bearing mice; format: in vivo, SCID mice; conditions: for Symptoms (clinical signs of toxicity): endotoxin-free tTF alone
Method: Treatment was initiated when subcutaneous tumors reached a size of 150 to 300 μl. Reagents were administered into the lateral tail vein.
(§1) Mice were closely observed after treatment for clinical signs of toxicity and clinical status was documented at defined time points (5 minutes, 10 minutes, 15 minutes, 30 minutes. 1 hour, 2 hours, 24 hours, 48 hours, 72 hours). Blood samples were taken from the tail vein at 1 hour, 2 hours and 24 hours to measure TNFα blood levels. Three days after treatment, the mice were anesthetized, blood samples were taken from the vena cava for coagulation tests, and an autopsy was performed to document any changes in gross pathology. Tumors, lymph node metastases and the major normal organs (heart, lung, brain, liver, kidney, colon, spleen, pancreas) were harvested and prepared for histological analysis.
Tissue samples harvested at the time of autopsy were fixed in 3% NBF (normal buffered formalin) and embedded in paraffin wax. Tissue blocs were cut, dewaxed and stained with hematoxilin and eosin (H&E). Tissue sections were analyzed on a light microscope by two independent investigators and histological findings were documented. Tumor sections with necrotic areas were scanned with a GS-700 imaging densitometer (Biorad, Hercules, Calif.) and areas of necrosis were calculated as % of total section area. Statistical Analysis was performed using SPSS software (SPSS Science Software, Erkrath, Germany) applying the Mann-Whitney-U-test for ungrouped data.

[2] = system: thrombin-antithrombin-complexes (TAT); experiment: Plasma thrombin-antithrombin-complexes (Enzygnost TAT micro-assay) three days after treatment; format: in vivo; conditions: tTF alone; tumor bearing mice, three days after i.v. treatment
Method: as §1
At the time of autopsy, citrated blood was sampled from the vena cava and thrombocyte-free plasma was prepared by centrifugation. […] Thrombin-Antithrombin-complexes were detected with the Enzygnost® TAT micro-assay (Dade-Behring, Marburg, Germany) according to the manufacturer's instructions. ATIII levels were determined using the Coamatic® antithrombin-assay (Haemocbrom, Essen, Germany) following the manufacturer's instructions. Changes in the blood levels of thrombin and plasmin were detected by mixing citrated plasma with the respective chromogenic substrates S2238 and S2403 (Haemochrom, Essen, Germany) and measuring the increase of the absorption at 405 nm by an ELISA reader.

bEnd 3 cells = experiment: Cell bound coagulation assay on stimulated endothelial cells (Factor Xa generation); format: cell-based, mouse; conditions: for Factor Xa generation due to Factor VIIa production: mix with 2 μg/ml factor VII and 0.01 μg/ml factor VIIa; for Factor Xa generation: mix with 0.5 μg/ml factor VIIa
Method: (§2) To assay the coagulation induction of stimulated versus unstimulated endothelial cells, bend 3 cells were seeded in 48 well tissue culture plates at a density of 1×10^4 cells per well and allowed to adhere overnight. Cells were stimulated with endotoxin (0.5 μg/ml and 10 μg/ml) or TNFα (500 U/ml) for 4 h at 37° C. […] After incubation for 45 min at room temperature, cells were washed and incubated with various coagulation factor mixes as follows: (1) 0.5 μg/ml factor VIIa in a mix containing 2.8 μg/ml factor IX, 3.4 μg/ml factor X, 50 μM phospholipids, in calcium buffer (as specified above); (2) 0.01 μg/ml factor VIIa in a mix as in (1); (3) 2 μg/ml factor VII (Calbiochem-Novabiochem, San Diego, Calif.) in a mix as in (1); (4) 2 μg/ml factor VII. 0.01 μg/ml factor VIIa in a mix as in (1). The supernatant of wells was transferred into a 96 well ELISA plate. Substrate S2765 was added and Factor Xa generation measured alongside different concentrations of Factor Xa standard (7 nkatS2222; 0.7 nkatS2222; 0.07 nkatS2222). OD405 nm values were calculated as nkatS2222 Factor Xa from the Factor Xa standard curve.
as §2, with “bEnd” for “To assay the coagulation induction of stimulated versus unstimulated endothelial cells, bend”, “with” for “with various”, “mix” for “mixes”, “follows:” for “follows: (1)”, “buffer;” for “buffer (as specified above); (2) 0.01 μg/ml factor VIIa in a mix as in (1); (3) 2 μg/ml factor VII (Calbiochem-Novabiochem, San Diego, Calif.) in a mix as in (1); (4) 2 μg/ml factor VII. 0.01 μg/ml factor VIIa in a mix as in (1). The”

immobilized tTF = target: T1, immobilized tTF (Homo sapiens, UniProt P13726); experiment: Real time binding of tTF to immobilized tTF (surface plasmon resonance); conditions: tTF alone or preincubated with endotoxin or factor VIIa
T1 construct: Recombinant soluble Tissue Factor protein (amino acids 1-219) was extracted from the periplasmic space of transformed E. coli; made in house; host or cells: E. coli (periplasmic secretion, vector pswc7)

L540 tumors = experiment: Anti-tumor activity of anti-VCAM-1·tTF coaguligand in L540 tumors; format: in vivo, SCID mice; conditions: controls
Method: The anti-tumor activity of anti-VCAM-1-tTF coaguligand was determined in SCID mice bearing 0.3-0.4 cm^3 L540 tumors. The drug was administered i.v. 3 times at intervals of 4 days.

C1300 Muγ tumors = experiment: Anti-tumor effects of tTF and immunoglobulin-tTF in C1300 Muγ tumors; format: in vivo, nu/nu mice; conditions: tTF alone or mixed with control bispecific antibodies
Method: The tumor test systems were: i) L540 human Hodgkin's disease tumors growing in SCID mice; ii) C1300 Muγ (interferon-secreting) neuroblastoma growing in nu/nu mice; iii) H460 human non-small cell lung carcinoma growing in nu/nu mice. To establish solid tumors, 1.5×10^7 tumor cells were injected subcutaneously into the right anterior flank of SCID or BALB/c nu/nu mice (Charles River Labs., Wilmingham, Mass.). When the tumors had grown to various diameters, mice were assigned to different experimental groups, each containing 4 to 9 mice.
Other mice received equivalent quantities of bispecific antibody alone. The injections were performed over ˜45 seconds into one of the tail veins, followed by 200 μl of saline. The infusions were repeated six days later. Perpendicular tumor diameters were measured at regular intervals and tumor volumes were calculated.
Mice bearing small (300 mm^3) C1300 Muγ tumors were injected intravenously with 16-20 μg tTF219. The treatment was repeated one week later. […] One week after the second treatment with tTF219, tumors were 60% of the size of tumors in mice receiving diluent alone. The greater effectiveness of the second injection probably derives from the greater thrombotic action of tTF219 on vessels in large tumors, observed above.
Mice bearing small (300 mm^3) subcutaneous C1300 Muγtumors were treated with tTF219 or with a complex of tTF219 and a bispecific antibody, OX7 Fab′/10H10 Fab′, not directed to a component of the tumor environment. The treatment was repeated 6 days later.

T1 sequence (P13726 33-251): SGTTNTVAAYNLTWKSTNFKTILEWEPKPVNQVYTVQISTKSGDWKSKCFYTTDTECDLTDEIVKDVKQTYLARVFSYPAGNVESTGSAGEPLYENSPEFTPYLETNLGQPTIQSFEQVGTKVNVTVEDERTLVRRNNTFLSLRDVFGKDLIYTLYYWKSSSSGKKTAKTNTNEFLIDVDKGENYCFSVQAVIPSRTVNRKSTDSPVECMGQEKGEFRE

tTF: extracellular domain of the mature Tissue Factor protein (amino acid 1-219), recombinant; depyrogenated in Example X
Symptoms (clinical signs of toxicity) [1]: no clinical signs of toxicity
Symptoms (clinical signs of toxicity) ([1]; listed as TTF): None
histology of normal organs (necrosis, thrombosis, abnormalities) ([1]; light microscopy, three days after treatment): No histological abnormalities were seen
TAT [2]: 25.4 ng/mL
Factor Xa generation due to Factor VIIa production (bEnd 3 cells; cells stimulated with 0.5 μg/ml LPS (row Medium = stimulant alone)): 3.00 nkats2222
Factor Xa generation (bEnd 3 cells; cells stimulated with 0.5 μg/ml LPS, then incubated with row agent (row Medium = stimulant alone)): 2.00 nkats2222
Factor Xa generation (bEnd 3 cells; cells stimulated with 10 μg/ml LPS, then incubated with row agent (row Medium = stimulant alone)): 2.91 nkats2222
Factor Xa generation (bEnd 3 cells; cells stimulated with TNFα (500 U/ml), then incubated with row agent (row Medium = stimulant alone)): 0.67 nkats2222
Factor Xa generation due to Factor VIIa production (bEnd 3 cells; cells stimulated with TNFα (row Medium = stimulant alone)): 1.91 nkats2222
Factor Xa generation (bEnd 3 cells; cells stimulated with medium, then incubated with row agent): 0.40 nkats2222
Factor Xa generation due to Factor VIIa production (bEnd 3 cells; cells stimulated with medium): 0.70 nkats2222
binding to immobilized tTF (immobilized tTF): did not bind to or homodimerize with immobilized tTF
effect on tumor growth (L540 tumors): did not affect tumor growth
tumor growth versus antibodies or saline alone (C1300 Muγ tumors): grew significantly more slowly
